Reference: patent US4275068A, “Lipid lowering alkylene glycols and ester derivatives thereof” (Siegfried AG, priority 1977, dated 1981)
Where a name gives a salt, the structure may show the parent alone.

Assays:
Toxicity on mice (LD50) = details: mouse
Text: Toxicity values and activities of the above compounds (1) were investigated by animal tests in accordance with conventional methods as described, for example, in the above mentioned publications, and compared with the corresponding data of clofibrate, the well known cholesterol-lowering agent: […]

[1] = tested on: cholesterol content of the blood; experiment: Cholesterol-lowering (dosis required for a 25% reduction of the cholesterol content of the blood); assay type: in vivo; details: dosis for 25% reduction of cholesterol content of the blood; mg/kg body weight; read-out: Cholesterol ED 25
Text: The ED25 value, that is, the dosis in mg/kg body weight required for a 25% reduction of the cholesterol content of the blood, is 151 for clofibrate but better, i.e. lower, with all compounds (1) tested so far.

[2] = tested on: triglyceride content of the blood; experiment: Triglyceride-lowering (dosis required for a 25% reduction of the triglyceride content of the blood); assay type: in vivo; details: dosis for 25% reduction of triglyceride content of the blood, mg/kg body weight; for ED25: read-out: Triglyceride ED 25
Text: The ED25 value, in this instance the dosis in mg/kg body weight required for a 25% reduction of the triglyceride content of the blood, is better, i.e. lower, with all compounds (1) tested so far than the corresponding activity value of 22 of clofibrate.

Structure (SMILES)	LD50 (Toxicity on mice (LD50); in vivo)	ED25 [1]	Triglyceride ED 25 [2]	Triglyceride ED 25 ([2]; listed as clofibrate)	LD50 (Toxicity on mice (LD50))	ED25 [2]
CCOC(=O)C(C)(C)Oc1ccc(Cl)cc1 [Clofibrate, reference compound]	2180 mg/kg	151 mg/kg	222 mg/kg	22 mg/kg		
OCCOc1ccc(Cc2ccc(Cl)cc2)cc1 [Example 1, 2-[4-(4'-chlorobenzyl)-phenoxy]-ethanol]		80 mg/kg			3000 mg/kg	< 50 mg/kg
CCC(C)(CO)Oc1ccc(Cc2ccc(Cl)cc2)cc1 (stereo not drawn) [Example 2, 2-methyl-2-[4-(4'-chlorobenzyl)-phenoxy]-butanol]		80 mg/kg			2960 mg/kg	14 mg/kg
OCC(Oc1ccc(Cc2ccc(Cl)cc2)cc1)c1ccccc1 (stereo not drawn) [Example 3, 2-phenyl-2-[4-(4'-chlorobenzyl)-phenoxy]-ethanol]		> 100 mg/kg			> 3000 mg/kg	
O=C(OCCOc1ccc(Cc2ccc(Cl)cc2)cc1)c1cccnc1 [Example 4, Ester of nicotinic acid and 2-[4-(4'-chlorobenzyl)-phenoxy]-ethanol]		41 mg/kg			> 3000 mg/kg	70 mg/kg
CCC(C)(COC(=O)c1cccnc1)Oc1ccc(Cc2ccc(Cl)cc2)cc1 (stereo not drawn) [Example 5, Hydrochloride of nicotinic acid ester of 2-methyl-2-[4-(4'-chlorobenzyl)-phenoxy]-butanol]		30 mg/kg			> 3000 mg/kg	40 mg/kg
CC(=O)Oc1ccccc1C(=O)OCCOc1ccc(Cc2ccc(Cl)cc2)cc1 [Example 6, Acetylsalicylic acid ester of 2-[4-(4'-chlorobenzyl)-phenoxy]-ethanol]		70 mg/kg			> 3000 mg/kg	> 100 mg/kg
